Data on 16 compounds can be found in BindingDB's records for PubMed 1738111 (University of Texas, 1992).

Some results are limits rather than exact numbers.

For orientation: Ki means the equilibrium dissociation constant of an inhibitor or competing ligand from its target. A lower Ki goes with tighter binding.

For the test, the target named is 5-hydroxytryptamine receptor 1B (Rattus norvegicus, UniProt P28564).
Chain of 5-hydroxytryptamine receptor 1B (P28564 whole entry): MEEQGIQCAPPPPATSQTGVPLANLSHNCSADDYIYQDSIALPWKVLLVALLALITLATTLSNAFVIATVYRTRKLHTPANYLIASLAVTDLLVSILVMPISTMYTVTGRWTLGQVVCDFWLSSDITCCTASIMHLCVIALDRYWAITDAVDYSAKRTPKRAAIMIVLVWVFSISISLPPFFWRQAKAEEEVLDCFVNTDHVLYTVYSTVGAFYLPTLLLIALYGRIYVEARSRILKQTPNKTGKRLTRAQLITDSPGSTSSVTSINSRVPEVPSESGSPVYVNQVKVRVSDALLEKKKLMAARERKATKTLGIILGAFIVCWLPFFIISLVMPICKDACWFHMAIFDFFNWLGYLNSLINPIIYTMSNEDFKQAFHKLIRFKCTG
The compound `Clc1cccc(N2CCNCC2)c1` [mCPP] showed a Ki of 96 nM.

As to `CN1C2CCC1CC(OC(=O)c1c[nH]c3ccccc13)C2` (stereo unspecified), the Ki was above 10000 nM.

Turning to `CSc1ccc2c(c1)C(N1CCN(C)CC1)Cc1ccccc1S2` (stereo unspecified) [methanesulfonic acid;1-methyl-4-(3-methylsulfanyl-5,6-dihydrobenzo[b][1]benzothiepin-5-yl)piperazine], the affinity, expressed as Ki, was 95 nM.

As for `CN1C2CCC1CC(OC(=O)c1cc(Cl)cc(Cl)c1)C2` (stereo unspecified) [MDL 72222], the Ki was above 10000 nM.

`CN1C[C@@H](NS(=O)(=O)N(C)C)C[C@@H]2c3cccc4c3c(cn4C)C[C@H]21` [MESULERGINE] displayed a Ki above 10000 nM.

In the case of `O=C(CCCN1CCC2(CC1)C(=O)NCN2c1ccccc1)c1ccc(F)cc1` [8-[4-(4-fluorophenyl)-4-oxidanylidene-butyl]-1-phenyl-1,3,8-triazaspiro[4.5]decan-4-one], the Ki was above 10000 nM.

`CN1CCN(c2nc3cc(C(F)(F)F)ccc3n3cccc23)CC1` [CAS_109028-10-6] had a Ki of 32 nM.

For the compound `FC(F)(F)c1cccc(N2CCNCC2)c1` [TFMPP], the affinity, expressed as Ki, was 84 nM.

On to `NCC(O)c1ccc(O)c(O)c1` (stereo not drawn) [Noradrenaline,(+)], for which the Ki is above 10000 nM.

The compound `Clc1cccc(Cl)c1N=C1NCCN1` [2-(2,6-dichloroanilino)-2-imidazoline] came in with a Ki above 10000 nM.

On to `Cc1ccc(N(CC2=NCCN2)c2cccc(O)c2)cc1` [SMR000059054], for which the Ki turned out to be 870 nM.

The compound `COc1cc2nc(N3CCN(C(=O)c4ccco4)CC3)nc(N)c2cc1OC` [[3H]-Minipress] displayed a Ki of 290 nM.

`c1ccc2nc(N3CCNCC3)ccc2c1` [2-Piperazin-1-yl-quinoline (Quipazine)] yielded a Ki of 249 nM.

Turning to `NCCc1c[nH]c2ccc(C(N)=O)cc12` [[3H]-5-carboxamidotryptamine], the Ki is 4 nM.

The compound `CC[C@@H](CO)NC(=O)[C@@H]1C=C2c3cccc4c3c(cn4C)C[C@H]2N(C)C1` registered a Ki of 386 nM.

On to `O=C(c1ccc(F)cc1)C1CCN(CCn2c(=O)[nH]c3ccccc3c2=O)CC1` [3-(2-{4-[(4-fluorophenyl)carbonyl]piperidin-1-yl}ethyl)-1,2,3,4-tetrahydroquinazoline-2,4-dione], for which the Ki was above 10000 nM.
